Columns and labels:
[1] = test system: pancreatic ductal adenocarcinoma (Panc-1); assay: Anti-tumor activity on Panc-1: cell viability by sulforhodamine or MTT assay; type: cell-based; settings: Homo sapiens, Panc-1 cells, 96 hours treatment, 0.001-1000 nM
Method: The compounds according to the present invention were evaluated for their anti-tumor activities on pancreatic ductal adenocarcinoma (Panc-1). To this end, 0.5×10^6 human malignant cells were treated with various concentrations (0.001-1000 nM) for 96 hours of FK866 or the compounds according to the present invention. Subsequently cell viability was determined using either sulforhodamine assays as described in Caffa I, et al. (Oncotarget. 2015 May 20; 6(14):11820-32) or MTT assays. Sulforhodamine B is a dye able that binds to cellular proteins. […] For MTT assays, human malignant cells were plated in triplicate on 96-well plates and treated as mentioned above. After 96 hours of incubation, 15 μL of dye solution was added to each well and cells were incubated for an additional 4 hours. Stop solution (100 μL/well) was added for 1 hour and the absorbance was read at 570 nm on a spectrophotometer. To confirm whether the cytotoxicity exerted by these compounds involves programmed cell death, drug-induced cell death was evaluated using annexin V and 7AAD double staining as described by the manufacturer for assessing apoptosis or autophagic-cell death using a Beckman Coulter Cytomics Gallios flow cytometer. Dead cells were identified as annexinV+ and/or 7AAD+. GraphPad Prism version 7.00 (GraphPad Software, San Diego, Calif.) was used for IC50 calculation.

[2] = Pharmacokinetics after intraperitoneal administration in female SCID mice (plasma, LC-MS/MS, non compartmental analysis); type: in vivo; settings: 20 mg/kg IP
Method: The pharmacokinetics parameters of FK866, FE1199, VAL22-2 and MPM07 were determined following intraperitoneal administration (IP) in female SCID mice.
• SCID (Severe Combined ImmunoDeficiency) mice female total 144 • 25 mM in DMSO (dimethylsulfoxyde) of each test drug • Saline solution (0.9%)
Test drugs were dissolved in saline solution at 20 mg/ml. All dosing solutions were controlled by HPLC (High-Performance Liquid Chromatography) analysis. Mouse weight is estimated around 20 g.
Three mice per time point were used in each group.
Blood samples were collected on citrate at 10 min, 30 min, 1 h, 2 h, 4 h, 6 h, 8 h and 24 hours after drug administration. Following centrifugation, resulting plasma was stored at […] pending bioanalysis. Samples were analyzed by LC-MS/MS (Liquid chromatography tandem-mass spectrometry); the lower limit of quantification achieved was between 3 and 12 nM depending on drug. Non compartmental pharmacokinetic analysis was performed on plasma concentration data.

Compound	IC50 [1] [nM]	further results
COc1ccc(C(=O)N2CCC(CCCCNC(=O)/C=C/c3cccnc3)CC2)c(OC)c1 [FEI-56, (E)-N-(4-(1-(2,4-Dimethoxybenzoyl)piperidin-4-yl)butyl)-3-(pyridin-3-yl)acrylamide]	3	
COc1cccc(OC)c1C(=O)N1CCC(CCCCNC(=O)/C=C/c2cccnc2)CC1 [FEI-58, (E)-N-(4-(1-(2,6-Dimethoxybenzoyl)piperidin-4-yl)butyl)-3-(pyridin-3-yl)acrylamide]	0.6	
COc1cc(OC)c(C(=O)N2CCC(CCCCNC(=O)/C=C/c3cccnc3)CC2)c(OC)c1 [FEI-62, (E)-3-(Pyridin-3-yl)-N-(4-(1-(2,4,6-trimethoxybenzoyl)piperidin-4-yl)butyl)acrylamide]	1	
COc1ccoc1C(=O)N1CCC(CCCCNC(=O)/C=C/c2cccnc2)CC1 [FEI-71, (E)-N-(4-(1-(3-Methoxyfuran-2-carbonyl)piperidin-4-yl)butyl)-3-(pyridin-3-yl)acrylamide]	7	
O=C(/C=C/c1cccnc1)NCCCCC1CCN(C(=O)c2ccno2)CC1 [FEI-74, (E)-N-(4-(1-(Isoxazole-5-carbonyl)piperidin-4-yl)butyl)-3-(pyridin-3-yl)acrylamide]	5	
COc1cc(C=O)cc(OC)c1C(=O)N1CCC(CCCCNC(=O)/C=C/c2cccnc2)CC1 [FEI-75, (E)-N-(4-(1-(4-Formyl-2,6-dimethoxybenzoyl)piperidin-4-yl)butyl)-3-(pyridin-3-yl)acrylamide]	2	
O=C(/C=C/c1cccnc1)NC/C=C/CC1CCN(C(=O)c2ccccc2)CC1 [FEI-80, (E)-N-((E)-4-(1-Benzoylpiperidin-4-yl)but-2-en-1-yl)-3-(pyridin-3-yl)acrylamide]	9	
COc1cccc(OC)c1C(=O)N1CCC(C/C=C/CNC(=O)/C=C/c2cccnc2)CC1 [FEI-81, (E)-N-((E)-4-(1-(2,6-Dimethoxybenzoyl)piperidin-4-yl)but-2-en-1-yl)-3-(pyridin-3-yl)acrylamide]	2.3	
COc1cc(OC)c(C(=O)N2CCC(C/C=C/CNC(=O)/C=C/c3cccnc3)CC2)c(OC)c1 [FEI-82, (E)-3-(Pyridin-3-yl)-N-((E)-4-(1-(2,4,6-trimethoxybenzoyl)piperidin-4-yl)but-2-en-1-yl)acrylamide]	0.4	
O=C(/C=C/c1cccnc1)NC/C=C/CC1CCN(C(=O)c2ccco2)CC1 [FEI-83, (E)-N-((E)-4-(1-(Furan-2-carbonyl)piperidin-4-yl)but-2-en-1-yl)-3-(pyridin-3-yl)acrylamide]	15	
O=C(/C=C/c1cccnc1)NC/C=C/CC1CCN(C(=O)c2cccs2)CC1 [FEI-85, (E)-3-(Pyridin-3-yl)-N-((E)-4-(1-(thiophene-2-carbonyl)piperidin-4-yl)but-2-en-1-yl)acrylamide]	2	
N#C/N=C(\NCCCCC1CCN(C(=O)c2cccs2)CC1)Nc1ccc(F)nc1 [FEI-171, (E)-2-Cyano-1-(6-fluoropyridin-3-yl)-3-(4-(1-(thiophene-2-carbonyl)piperidin-4-yl)butyl)guanidine]	12	
N#C/N=C(\NC/C=C/CCC1CCN(C(=O)c2ccccc2)CC1)Nc1cccnc1 [FEI-194, (E)-1-((E)-5-(1-Benzoylpiperidin-4-yl)pent-2-en-1-yl)-2-cyano-3-(pyridin-3-yl)guanidine]	5	
N#C/N=C(\NC/C=C/CCC1CCN(C(=O)c2cccs2)CC1)Nc1cccnc1 [FEI-196, (E)-2-Cyano-1-(pyridin-3-yl)-3-((E)-5-(1-(thiophene-2-carbonyl)piperidin-4-yl)pent-2-en-1-yl)guanidine]	5.9	
N#C/N=C(\NC/C=C/CCC1CCN(C(=O)c2ccccc2)CC1)Nc1ccncc1 [FEI-198, (E)-1-((E)-5-(1-Benzoylpiperidin-4-yl)pent-2-en-1-yl)-2-cyano-3-(pyridin-4-yl)guanidine]	5	
COc1cccc(OC)c1C(=O)N1CCC(CCCCNC(=O)Nc2ccncc2)CC1 [FEI-209, 1-(4-(1-(2,6-Dimethoxybenzoyl)piperidin-4-yl)butyl)-3-(pyridin-4-yl)urea]	8.2	
COc1cccc(OC)c1C(=O)N1CCC(CCCCNC(=O)/C=C/c2cccnc2F)CC1 [MPM-08]	6	
COc1cccc(OC)c1C(=O)N1CCC(CCCCNC(=O)/C=C/c2ccc(F)nc2F)CC1 [MPM-09]	2	
COc1cc(C=O)cc(OC)c1C(=O)N1CCC(CCCCNC(=O)/C=C/c2cccnc2F)CC1 [MPM-13]	15.5	
O=C(/C=C/c1cccnc1F)NCCCCC1CCN(C(=O)c2ccccc2)CC1 [VAL22-2, (E)-N-(4-(1-benzoylpiperidin-4-yl)butyl)-3-(2-fluoropyridin-3-yl)acrylamide]		CL ([2]; CL calculated as dose/AUC): 23.6 mL/h; Percentage of extrapolated AUC from T6 h to infinity ([2]; plasma, relative to AUC0-inf): 1.4%; T1/2α ([2]; plasma, t½α (0 -> 6 h)): 27.6 min; T1/2β ([2]; plasma, t½β (6 -> 24 h)): 515 min; half-lives in the second phase (6 h→24 h) compared with FK866 ([2]; plasma, versus FK866): improved and longer half-lives; Cmax ([2]; mouse, plasma): 16900 ng/mL; Tmax ([2]; mouse, plasma): 10 min; AUC(0-inf) ([2]; mouse, plasma, log-trapezoidal rule, extrapolated to infinity): 8470 ng·h/mL; AUC(0-t) ([2]; mouse, plasma, read-out: AUC0-8 h): 8400 ng·h/mL

More lines, main results first:

IC50 [1] [nM]	Compound	further results
3.9	N#C/N=C(\NCCCCC1CCN(C(=O)c2ccccc2)CC1)Nc1ccncc1 [FEI-154, (E)-1-(4-(1-Benzoylpiperidin-4-yl)butyl)-2-cyano-3-(pyridin-4-yl)guanidine]	
6.8	N#C/N=C(\NCCCCC1CCN(C(=O)c2ccco2)CC1)Nc1ccncc1 [FEI-158, (E)-2-Cyano-1-(4-(1-(furan-2-carbonyl)piperidin-4-yl)butyl)-3-(pyridin-4-yl)guanidine]	
18	N#C/N=C(\NCCCCC1CCN(C(=O)c2ccco2)CC1)Nc1ccc(F)nc1 [FEI-170, (E)-2-Cyano-1-(6-fluoropyridin-3-yl)-3-(4-(1-(furan-2-carbonyl)piperidin-4-yl)butyl)guanidine]	
2.6	N#C/N=C(\NCCCCCC1CCN(C(=O)c2ccccc2)CC1)Nc1ccncc1 [FEI-190, (E)-1-(5-(1-Benzoylpiperidin-4-yl)pentyl)-2-cyano-3-(pyridin-4-yl)guanidine]	
1.9	N#C/N=C(\NCCCCCC1CCN(C(=O)c2ccco2)CC1)Nc1ccncc1 [FEI-191, (E)-2-Cyano-1-(5-(1-(furan-2-carbonyl)piperidin-4-yl)pentyl)-3-(pyridin-4-yl)guanidine]	
2.3	N#C/N=C(\NCCCCCC1CCN(C(=O)c2cccs2)CC1)Nc1ccncc1 [FEI-192, (E)-2-Cyano-1-(pyridin-4-yl)-3-(5-(1-(thiophene-2-carbonyl)piperidin-4-yl)pentyl)guanidine]	
4.8	COc1cccc(OC)c1C(=O)N1CCC(CCCCCN/C(=N\C#N)Nc2ccncc2)CC1 [FEI-193, (E)-2-Cyano-1-(5-(1-(2,6-dimethoxybenzoyl)piperidin-4-yl)pentyl)-3-(pyridin-4-yl)guanidine]	
4.6	N#C/N=C(\NC/C=C/CCC1CCN(C(=O)c2ccco2)CC1)Nc1cccnc1 [FEI-195, (E)-2-Cyano-1-((E)-5-(1-(furan-2-carbonyl)piperidin-4-yl)pent-2-en-1-yl)-3-(pyridin-3-yl)guanidine]	
2.4	N#C/N=C(\NC/C=C/CCC1CCN(C(=O)c2cccs2)CC1)Nc1ccncc1 [FEI-200, (E)-2-Cyano-1-(pyridin-4-yl)-3-((E)-5-(1-(thiophene-2-carbonyl)piperidin-4-yl)pent-2-en-1-yl)guanidine]	
